In patent publication US10485772B2, “Compositions for modulating cancer stem cells and uses therefor” (University of Canberra, priority 2014, dated 2019):

Test system: laminin-5, uPAR and CD44 transcripts in MDA-MB 231 cells
Assay: TaqMan real time PCR transcript analysis of EMT/CSC genes in basal/metastatic model
Format: cell-based, human
Settings: bisindolylmaleimide-I 4 μM
Experimental: For most of the experiments, total RNA was extracted from 5×10^5 to 1×10^6 MCF-7 cells unless otherwise specified. Cells were first thawed in 1 mL of Trizol® Reagent (Invitrogen, Carlsbad, Calif.) for 5 minutes at room temperature to inactivate RNases, followed by trituration to dislodge the cell pellet. The dissociated cells suspended in Tizol (1 mL) were transferred into a 1.5 mL Eppendorf tube for 5 minutes for homogenization. RNA was then extracted by addition of 200 μL chloroform and mixing was done vigorously before centrifuging the samples at 8,000×g for 30 minutes at 4° C. The aqueous layer was then collected into a fresh 1.5 mL Eppendorf tube and an equal volume of isopropanolol was added to the aqueous layer and mixed gently. After 5 minutes at room temperature, samples were either snap frozen on dry ice and stored at −70° C. overnight or until the isolation procedure could be re-commenced. […] Next, 2 μL of the sample was taken out to measure RNA quality and quantity on Nano-drop® Spectrophotometer ND 1000 (Nanodrop Technologies, Inc., Wilmington, Del., USA) using ND-1000 V3.30 software. […]
Superscript™® III kit (Invitrogen, Carlsbad, Calif.) was used for cDNA synthesis. […] All the samples were either snap frozen on dry ice or used immediately for quantitative Real-Time PCR analysis. […]

Compound: CN(C)CCCn1cc(C2=C(c3c[nH]c4ccccc34)C(=O)NC2=O)c2ccccc21 [bisindolylmaleimide-I]
- transcription of key inducible EMT/CSC genes (laminin-5, uPAR, CD44): inhibits transcription of key inducible EMT/CSC genes
- transcription of key inducible EMT/CSC genes (laminin-5, uPAR, CD44) (listed as Broad spectrum PKC pathway inhibitor): inhibition of EMT and CSC formation
